We go through 25 compounds from patent publication US10941138B2, “Quinoline and isoquinoline derivatives for treating pain and pain related conditions” (ESTEVE PHARMACEUTICALS, S.A., priority 2016, dated 2021).

The target in experiment [1] is human α2δ-1 subunit of Cav2.2 calcium channel (Homo sapiens (Human), UniProt P54289). The experiment can be described thus: Binding assay to human α2δ-1 subunit of Cav2.2 calcium channel ([3H]-Gabapentin). Particulars: read-out: Ki (nM) alpha2delta Hum. How it is done:
Binding Assay to Human α2δ-1 Subunit of Cav2.2 Calcium Channel.
Human α2δ-1 enriched membranes (2.5 μg) were incubated with 15 nM of radiolabeled [3H]-Gabapentin in assay buffer containing Hepes-KOH 10 mM, pH 7.4.
NSB (non specific binding) was measured by adding 10 μM pregabalin. The binding of the test compound was measured at five different concentrations. After 60 min incubation at 27° C., binding reaction was terminated by filtering through Multiscreen GF/C (Millipore) presoaked in 0.5% polyethyleneimine in Vacuum Manifold Station, followed by 3 washes with ice-cold filtration buffer containing 50 mM Tris-HCl, pH 7.4. Filter plates were dried at 60° C. for 1 h and 30 μl of scintillation cocktail were added to each well before radioactivity reading.
(§1) Readings were performed in a Trilux 1450 Microbeta radioactive counter (Perkin Elmer).

Experiment [2] addresses human norepinephrine transporter (NET) (Homo sapiens (Human), UniProt P23975). The experiment can be described thus: Binding assay to human norepinephrine transporter (NET) ([3H]-Nisoxetin). Particulars: Table 2, dual compounds, human NET enriched membranes, read-out: Ki (nM) NET Hum. How it is done:
Binding Assay to Human Norepinephrine Transporter (NET).
Human norepinephrine transporter (NET) enriched membranes (5 μg) were incubated with 5 nM of radiolabeled [3H]-Nisoxetin in assay buffer containing 50 mM Tris-HCl, 120 mM NaCl, 5 mM KCl, pH 7.4.
NSB (non specific binding) was measured by adding desipramine 10 μM. The binding of the test compound was measured at five different concentrations. After 60 min incubation at 4° C., binding reaction was terminated by filtering through Multiscreen GF/C (Millipore) presoaked in 0.5% polyethyleneimine in Vacuum Manifold Station, followed by 3 washes with ice-cold filtration buffer containing 50 mM Tris-HCl, 0.9% NaCl, pH 7.4.
Filter plates were dried at 60° C. for 1 h and 30 μl of scintillation cocktail were added to each well before radioactivity reading.
as §1

Setting [3] is: Table 1, human α2δ-1 enriched membranes.
Where [4] appears, read: Table 2, dual compounds, human α2δ-1 enriched membranes.

Read-outs that look alike come from different tables or passages of the source. Some results are limits rather than exact numbers.

human norepinephrine transporter (NET), sequence (P23975 whole entry): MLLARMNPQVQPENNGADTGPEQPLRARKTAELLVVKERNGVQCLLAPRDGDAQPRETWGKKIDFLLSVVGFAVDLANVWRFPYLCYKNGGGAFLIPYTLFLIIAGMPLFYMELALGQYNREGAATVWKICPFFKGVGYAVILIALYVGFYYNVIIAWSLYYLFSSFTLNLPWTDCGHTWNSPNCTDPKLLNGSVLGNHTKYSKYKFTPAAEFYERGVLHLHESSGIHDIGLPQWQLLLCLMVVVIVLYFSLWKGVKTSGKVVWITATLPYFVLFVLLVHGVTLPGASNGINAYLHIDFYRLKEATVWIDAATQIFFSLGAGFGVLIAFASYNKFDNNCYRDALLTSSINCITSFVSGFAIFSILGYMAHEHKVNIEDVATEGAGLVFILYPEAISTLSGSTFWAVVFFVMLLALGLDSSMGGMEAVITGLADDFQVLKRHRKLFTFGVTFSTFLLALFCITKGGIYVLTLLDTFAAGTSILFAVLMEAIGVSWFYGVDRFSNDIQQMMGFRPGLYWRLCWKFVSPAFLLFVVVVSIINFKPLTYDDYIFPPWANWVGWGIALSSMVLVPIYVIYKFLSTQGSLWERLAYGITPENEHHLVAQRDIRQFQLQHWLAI
human α2δ-1 subunit of Cav2.2 calcium channel, sequence (P54289 25-1103): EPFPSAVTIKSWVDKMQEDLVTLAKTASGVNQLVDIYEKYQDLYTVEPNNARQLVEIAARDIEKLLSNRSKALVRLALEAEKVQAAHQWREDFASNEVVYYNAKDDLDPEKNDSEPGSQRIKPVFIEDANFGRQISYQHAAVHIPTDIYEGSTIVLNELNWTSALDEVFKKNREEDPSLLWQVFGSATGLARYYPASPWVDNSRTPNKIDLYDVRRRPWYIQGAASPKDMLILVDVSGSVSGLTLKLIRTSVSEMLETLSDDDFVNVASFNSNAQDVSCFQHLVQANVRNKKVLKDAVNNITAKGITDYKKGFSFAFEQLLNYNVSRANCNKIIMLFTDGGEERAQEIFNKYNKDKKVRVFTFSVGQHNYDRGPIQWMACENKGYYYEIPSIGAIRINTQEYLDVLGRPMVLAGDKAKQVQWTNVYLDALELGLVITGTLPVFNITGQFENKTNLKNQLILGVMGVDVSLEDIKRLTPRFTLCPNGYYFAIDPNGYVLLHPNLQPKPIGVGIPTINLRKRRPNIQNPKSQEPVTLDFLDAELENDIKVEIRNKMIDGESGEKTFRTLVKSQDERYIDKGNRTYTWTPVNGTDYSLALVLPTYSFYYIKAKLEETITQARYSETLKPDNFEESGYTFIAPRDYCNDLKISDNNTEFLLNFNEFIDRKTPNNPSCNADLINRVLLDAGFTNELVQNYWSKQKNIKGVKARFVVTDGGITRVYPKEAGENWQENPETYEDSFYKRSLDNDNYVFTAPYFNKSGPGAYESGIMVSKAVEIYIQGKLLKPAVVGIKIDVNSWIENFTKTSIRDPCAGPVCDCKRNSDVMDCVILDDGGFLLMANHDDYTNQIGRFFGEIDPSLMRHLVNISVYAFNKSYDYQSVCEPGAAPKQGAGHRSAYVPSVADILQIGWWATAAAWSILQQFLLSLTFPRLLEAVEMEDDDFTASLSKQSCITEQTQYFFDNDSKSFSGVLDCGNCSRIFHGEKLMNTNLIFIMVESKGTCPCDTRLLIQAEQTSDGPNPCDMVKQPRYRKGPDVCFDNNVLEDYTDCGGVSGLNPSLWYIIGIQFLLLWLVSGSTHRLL

For the compound `CNCC[C@H](Oc1cccc2cnccc12)c1ccc(F)s1` [Example 50, (S)-3-(5-fluorothiophen-2-yl)-3-(isoquinolin-5-yloxy)-N-methylpropan-1-amine], the Ki was 500 to 3000 nM in experiment [1] (setting [3]), 500 to 3000 nM in experiment [1] (setting [4]) and below 100 nM in experiment [2].

In the case of `CNCCC(Oc1cccc2ncccc12)c1ccc(F)s1` (stereo not drawn) [Example 42, 3-(5-fluorothiophen-2-yl)-N-methyl-3-(quinolin-5-yloxy)propan-1-amine], the Ki in experiment [1] (setting [3]) was below 100 nM; in experiment [1] (setting [4]) it was below 100 nM; in experiment [2], 100 to 500 nM.

For the compound `CNCCC(Oc1cccc2cnccc12)c1nccs1` (stereo not drawn) [Example 71, 3-(isoquinolin-5-yloxy)-N-methyl-3-(thiazol-2-yl)propan-1-amine], the results for the Ki in experiment [1] (setting [3]), in experiment [1] (setting [4]) and in experiment [2] were 500 to 3000 nM, 500 to 3000 nM and 100 to 500 nM, respectively.

As for `CNCC[C@H](Oc1cccc2ccncc12)c1sccc1F` [Example 86, (S)-3-(3-Fluorothiophen-2-yl)-3-(isoquinolin-8-yloxy)-N-methylpropan-1-amine], the values for the Ki in experiment [1] (setting [3]), in experiment [1] (setting [4]) and in experiment [2] were at least 3000 nM, at least 3000 nM and 100 to 500 nM, respectively.

As for `NCCC(Oc1cccc2cnccc12)c1cccs1` (stereo not drawn) [Example 44, 3-(isoquinolin-5-yloxy)-3-(thiophen-2-yl)propan-1-amine], the Ki is at least 3000 nM in experiment [1] (setting [3]), at least 3000 nM in experiment [1] (setting [4]) and 100 to 500 nM in experiment [2].

As to `CNCCC(Oc1cccc2cnccc12)c1ccc(F)s1` (stereo not drawn) [Example 45, 3-(5-fluorothiophen-2-yl)-3-(isoquinolin-5-yloxy)-N-methylpropan-1-amine], the Ki in experiment [1] (setting [3]) was below 100 nM; in experiment [1] (setting [4]), below 100 nM; in experiment [2], 100 to 500 nM.

Take `CNCC[C@H](Oc1cccc2ncccc12)c1cccs1` [Example 9, (S)-N-methyl-3-(quinolin-5-yloxy)-3-(thiophen-2-yl)propan-1-amine]: the Ki in experiment [1] (setting [3]) was below 100 nM; in experiment [1] (setting [4]) it was below 100 nM; in experiment [2], 500 to 1000 nM.

In the case of `CNCCC(Oc1cccc2cnccc12)c1cccs1` (stereo not drawn) [Example 3, 3-(isoquinolin-5-yloxy)-N-methyl-3-(thiophen-2-yl)propan-1-amine], the Ki is 100 to 500 nM in experiment [1] (setting [3]), 100 to 500 nM in experiment [1] (setting [4]) and below 100 nM in experiment [2].

In the case of `CNCC[C@H](Oc1cccc2cnccc12)c1cccs1` [Example 11, (S)-3-(isoquinolin-5-yloxy)-N-methyl-3-(thiophen-2-yl)propan-1-amine], the Ki in experiment [1] (setting [3]) is at least 3000 nM; in experiment [1] (setting [4]), at least 3000 nM; in experiment [2], below 100 nM.

Consider `CNCC[C@H](Oc1cccc2ccncc12)c1cccs1` (stereo in doubt) [Example 12, 3-(isoquinolin-8-yloxy)-N-methyl-3-(thiophen-2-yl)propan-1-amine], for which the Ki in experiment [1] (setting [3]), in experiment [1] (setting [4]) and in experiment [2] was 100 to 500 nM in each case.

For `CNCCC(Oc1cccc2cnccc12)c1cccnc1` (stereo not drawn) [Example 17, 3-(isoquinolin-5-yloxy)-N-methyl-3-(pyridin-3-yl)propan-1-amine], the Ki in experiment [1] (setting [3]) is at least 3000 nM; in experiment [1] (setting [4]), at least 3000 nM; in experiment [2], 100 to 500 nM.

In the case of `CNCC[C@@H](Oc1cccc2cnccc12)c1ccsc1` [Example 60, (R)-3-(isoquinolin-5-yloxy)-N-methyl-3-(thiophen-3-yl)propan-1-amine], the Ki in experiment [1] (setting [3]), in experiment [1] (setting [4]) and in experiment [2] was 100 to 500 nM in each case.

Take `CNCCC(Oc1cccc2ncccc12)c1sccc1F` (stereo not drawn) [Example 48, 3-(3-fluorothiophen-2-yl)-N-methyl-3-(quinolin-5-yloxy)propan-1-amine]: the Ki in experiment [1] (setting [3]), in experiment [1] (setting [4]) and in experiment [2] was 100 to 500 nM in each case.

`CNCC[C@@H](Oc1cccc2ncccc12)c1ccc(F)s1` [Example 53, (R)-3-(5-fluorothiophen-2-yl)-N-methyl-3-(quinolin-5-yloxy)propan-1-amine]: the Ki in experiment [1] (setting [3]) is below 100 nM; in experiment [1] (setting [4]) it was below 100 nM; in experiment [2], 100 to 500 nM.

Regarding `CNCC[C@@H](Oc1cccc2ncccc12)c1cccs1` [Example 15, (R)-N-methyl-3-(quinolin-5-yloxy)-3-(thiophen-2-yl)propan-1-amine], the Ki in experiment [1] (setting [3]), in experiment [1] (setting [4]) and in experiment [2] was 100 to 500 nM throughout.

Consider `CNCC[C@H](Oc1cccc2ccncc12)c1cccs1` [Example 10, (S)-3-(isoquinolin-8-yloxy)-N-methyl-3-(thiophen-2-yl)propan-1-amine], for which the Ki is at least 3000 nM in experiment [1] (setting [3]), at least 3000 nM in experiment [1] (setting [4]) and 500 to 1000 nM in experiment [2].

`CNCCC(Oc1cccc2ncccc12)c1ccc(Cl)s1` (stereo not drawn) [Example 41, 3-(5-chlorothiophen-2-yl)-N-methyl-3-(quinolin-5-yloxy)propan-1-amine]: the Ki in experiment [1] (setting [3]), in experiment [1] (setting [4]) and in experiment [2] was 100 to 500 nM each time.

Consider `CNCC[C@@H](Oc1cccc2ccncc12)c1sccc1F` [Example 87, (R)-3-(3-fluorothiophen-2-yl)-3-(isoquinolin-8-yloxy)-N-methylpropan-1-amine], for which the Ki in experiment [1] (setting [3]), in experiment [1] (setting [4]) and in experiment [2] was 100 to 500 nM each time.

On to `CNCCC(Oc1cccc2ccncc12)c1ccc(F)s1` (stereo not drawn) [Example 49, 3-(5-fluorothiophen-2-yl)-3-(isoquinolin-8-yloxy)-N-methylpropan-1-amine], for which the Ki in experiment [1] (setting [3]), in experiment [1] (setting [4]) and in experiment [2] was 100 to 500 nM each time.

Consider `CNCCC(Oc1ccc2ccncc2c1)c1cccs1` (stereo not drawn) [Example 74, 3-(isoquinolin-7-yloxy)-N-methyl-3-(thiophen-2-yl)propan-1-amine], for which the figures for the Ki in experiment [1] (setting [3]), in experiment [1] (setting [4]) and in experiment [2] were at least 3000 nM, at least 3000 nM and 100 to 500 nM, respectively.

Take `CNCC[C@@H](Oc1cccc2ncccc12)c1ccc(Cl)s1` [Example 79, (R)-3-(5-chlorothiophen-2-yl)-N-methyl-3-(quinolin-5-yloxy)propan-1-amine]: the Ki in experiment [1] (setting [3]) was below 100 nM; in experiment [1] (setting [4]) it was below 100 nM; in experiment [2] it was 500 to 1000 nM.

Regarding `CNCC[C@H](Oc1cccc2ncccc12)c1sccc1F` [Example 84, (S)-3-(3-Fluorothiophen-2-yl)-N-methyl-3-(quinolin-5-yloxy)propan-1-amine], the Ki is 500 to 3000 nM in experiment [1] (setting [3]), 500 to 3000 nM in experiment [1] (setting [4]) and 100 to 500 nM in experiment [2].

Regarding `CNCC[C@H](Oc1cccc2ncccc12)c1ccsc1` [Example 67, (S)-N-methyl-3-(quinolin-5-yloxy)-3-(thiophen-3-yl)propan-1-amine], the Ki in experiment [1] (setting [3]), in experiment [1] (setting [4]) and in experiment [2] was 100 to 500 nM throughout.

Turning to `CNCC[C@H](Oc1cccc2cnccc12)c1sccc1F` [Example 82, (S)-3-(3-Fluorothiophen-2-yl)-3-(isoquinolin-5-yloxy)-N-methylpropan-1-amine], the Ki in experiment [1] (setting [3]) is at least 3000 nM; in experiment [1] (setting [4]), at least 3000 nM; in experiment [2], below 100 nM.

In the case of `CNCCC(Oc1cccc2cnccc12)c1sccc1F` (stereo not drawn) [Example 46, 3-(3-fluorothiophen-2-yl)-3-(isoquinolin-5-yloxy)-N-methylpropan-1-amine], the results for the Ki in experiment [1] (setting [3]), in experiment [1] (setting [4]) and in experiment [2] were 100 to 500 nM, 100 to 500 nM and below 100 nM, respectively.
